Results as given in patent publication US20190314285A1, “DOSAGE FORMS COMPRISING ABIRATERONE ACETATE” (Janssen Pharmaceutica NV, priority 2018, published 2019).
One block for each compound: values may come before it.

How the values were obtained:
mCRPC = details: cited from earlier work
[1] = Plasma concentrations of abiraterone acetate in previous studies; format: in vivo
[2] = tested on: circulating androgens (testosterone, DHT, DHEA, androstenedione); details: added to castration, relative to castration alone; cited from earlier work
17,20-lyase (CYP17A1) = biological target: T1, 17,20-lyase (CYP17A1) (Homo sapiens, UniProt P05093); details: cited from earlier work
T1 sequence (P05093 1-508): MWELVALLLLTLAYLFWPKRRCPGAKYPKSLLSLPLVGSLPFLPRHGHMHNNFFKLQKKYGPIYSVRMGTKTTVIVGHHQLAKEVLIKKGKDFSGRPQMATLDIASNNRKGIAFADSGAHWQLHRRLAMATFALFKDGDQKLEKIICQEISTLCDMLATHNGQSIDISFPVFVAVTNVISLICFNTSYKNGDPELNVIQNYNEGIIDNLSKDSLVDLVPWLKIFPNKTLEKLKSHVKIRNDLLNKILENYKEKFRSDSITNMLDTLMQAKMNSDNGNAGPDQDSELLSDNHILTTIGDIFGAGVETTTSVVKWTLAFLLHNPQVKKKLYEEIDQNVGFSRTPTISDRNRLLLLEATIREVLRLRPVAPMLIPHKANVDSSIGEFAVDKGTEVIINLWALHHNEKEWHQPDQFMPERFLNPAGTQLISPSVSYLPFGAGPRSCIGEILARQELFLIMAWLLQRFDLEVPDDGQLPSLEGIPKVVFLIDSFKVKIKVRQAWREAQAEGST

Structure (SMILES): O=C(c1cc(Cc2n[nH]c(=O)c3ccccc23)ccc1F)N1CCN(C(=O)C2CC2)CC1 [olaparib]
biomarker-negative patient tumors with a response (mCRPC; 2 of 33): 6% | responders who were biomarker-positive for anomalies in DNA-repair genes (mCRPC; 14 of the 16 patients with a response): 88% | patients with ATM aberrations who had a response (mCRPC; human, in vivo): 4 of 5 | patients with BRCA-2 loss who had a response (mCRPC; human, in vivo): all 7 patients

plasma concentrations of abiraterone acetate [1]: below the lower limit of quantitation
Structure (SMILES): CC(=O)O[C@H]1CC[C@@]2(C)C(=CC[C@@H]3[C@@H]2CC[C@]2(C)C(c4cccnc4)=CC[C@@H]32)C1 [abiraterone acetate, Abiraterone acetate]
reduction of DHEA levels [2]: 97-98% | reduction of DHT levels [2]: 85% | reduction of androstenedione levels [2]: 77-78%

Structure (SMILES): C[C@]12CC[C@H](O)CC1=CC[C@@H]1[C@@H]2CC[C@]2(C)C(c3cccnc3)=CC[C@@H]12 [Abiraterone]
IC50 (17,20-lyase (CYP17A1)): 15 nM
